Usually MIC stands for the lowest concentration found to suppress growth.

The subject of assay [1] is Campylobacter jejuni with high-level ciprofloxacin resistance. To be noted: gyrA codon 86 C to T transition; cited from earlier work.
Assay [2] has as its system Campylobacter jejuni strain cj49349. The assay is described as follows: Growth on BASB agar supplemented with ciprofloxacin. The format is cell-based. To be noted: ciprofloxacin at 16 μg per ml; wild-type strain cj49349.
Assay [3] concerns ciprofloxacin-resistant Campylobacter jejuni mutants (C to T transition in codon 86 of gyrA). As to the kind of experiment: Growth of selected mutants on BASB medium containing ciprofloxacin. Format: cell-based. To be noted: ciprofloxacin at 16 μg/ml; 12 Campylobacter mutants.

As for `O=C(O)c1cn(C2CC2)c2cc(N3CCNCC3)c(F)cc2c1=O` [ciprofloxacin], in assay [1], the minimum inhibitory concentration (MIC) was at least 16 µg/mL. Moreover, the “growth on BASB agar supplemented with ciprofloxacin” value in assay [2] is “unable to grow”. The “growth on BASB medium containing ciprofloxacin” value in assay [3] is “able to grow”.

(Values after patent US6355435B1, “Methods for detecting and enumerating Campylobacter jejuni in environmental samples and for identifying antibiotic-resistant strains” (priority 1999, dated 2002).)
